# Data: patent publication US20250352524A1, “PREVENTION OF METASTATIC OUTGROWTH USING TEAD INHIBITORS” (Georgetown University, priority 2024, published 2025)
# System: peritoneal macrophages
# Assay: Gene expression and pathway analysis of peritoneal macrophages treated in vitro
# Assay type: cell-based, mouse
# Source text: To investigate whether the effect of iTEAD treatment on macrophages can enhance their crosstalk with T-cells in the lung microenvironment, peritoneal macrophages+/−iTEAD were first isolated and characterized as a model of resident macrophages for ex vivo experiments (FIG. 14, Panel A). It was observed that treatment with VT107 decreased gene expression of M2-like and fibrosis regulators, Aldh1a1 and Cc117 (Chen et al., 2020), as well as TEAD4 and its downstream target gene Ankrd1. […] The iTEAD pretreated peritoneal macrophages and untreated T-cells isolated from the spleen of tumor naïve mice (FIG. 14, Panel A) were then mixed for 5 hours before collecting the conditioned media for analysis. […] Next, these immune cell mixes were added to 4T1 spheres that were embedded into matrix. […] This effect was reversed by an IL12 neutralizing antibody. No change in cleaved caspase-3 in 4T1 cells in the presence of VT107-treated T-cells or macrophages alone, was detected at 24 hours (FIG. 14, Panels C and D). 4T1 cells were then plated and allowed to attach on electrode-coated arrays to monitor cancer cell viability before the addition of macrophages+/−iTEAD and T-cells. […] This reversal of T-cell cytotoxicity by IL12 antibodies was not observed in VT107-treated T-cells in the absence of macrophages (FIG. 15, Panel E) indicating a critical role for IL12 in the crosstalk between macrophages and T-cells.
# The total RNA from tissue or cell lines was extracted using RNeasy Mini Kit (Qiagen, #74104) according to the manufacturer's instructions. Total RNA integrity was assessed with the Agilent 2100 Bioanalyzer. The library preparation and next-generation sequencing (NGS) were performed at Novogene Corporation Inc. (Sacramento, CA, USA). At least triplicate samples per experimental condition were analyzed, raw sequence reads (150 bp paired end, […] average reads/sample) were aligned to the human or mouse transcriptome using STAR, and aligned reads translated to expression counts via featurecounts, followed by a standard edgeR (RRID:SCR_012802) pipeline to identify DEGs under specific conditions. Ingenuity pathway analysis (IPA, RRID:SCR_008653) was undertaken using a list of all differentially expressed genes with a cutoff of p-value less than 0.05 to identify signaling pathways and upstream regulators.
# [1] = 1 μM VT107 for 24 hours, pathway analysis
substance,measurement,setting,value
VT107,cell cycle related pathways,[1],upregulated
same,disease-related chronic inflammation pathways,[1],downregulation
same,Pvalb gene expression,1 μM VT107 for 72 hours,top upregulated gene
same,"gene expression of Aldh1a1, Cc117, TEAD4 and Ankrd1",1 μM VT107 for 72 hours,decreased
